The source of these data is article PMC9061999, “Application of the Adverse Outcome Pathway Concept to In Vitro Nephrotoxicity Assessment: Kidney Injury due to Receptor-Mediated Endocytosis and Lysosomal Overload as a Case Study” (Frontiers in Toxicology, 2022).

One series relates to RPTEC/TERT1 cells. Kind of series: LC-MS/MS analysis of intracellular concentration. The series is classed as in vitro ADME, human. The conditions noted are these: for Intracellular concentration after recovery compared to the 24 h time-point: RPTEC/TERT1, 34 µM for 24 h, then 24 h in fresh medium; for Time course of intracellular concentration: within the 24 h treatment period (1-2 min, 1, 3, 6, 24 h), n = 3. The protocol: NRK-52E and RPTEC/TERT1 cells were seeded in 12-well plates (120,000 cells per well) and were allowed to grow for 48 h (NRK-52E) or 10 d (RPTEC/TERT1) until they reached 100% confluence. After cells achieved 100% confluence, the supernatant was aspirated, and the cells were washed twice with 1 x PBS. Cells were treated with polymyxins at a final concentration of 34 µM for 24 h. Samples were taken at five different treatment time points (1–2 min, 1, 3, 6, and 24 h). In addition, a recovery sample was taken 24 h after the end of the 24 h treatment period. To this end, the supernatant was aspirated after 24 h treatment and the cells were washed three times with 1 x PBS to remove polymyxin B or colistin residues. Fresh growth medium was added, and the cells were incubated for another 24 h. At the end of each experiment, the cells were washed 3 times with 1 x PBS and trypsinized by adding 200 µL of trypsin. Detached cells were washed with 1,000 µL 1 x PBS and the cells were transferred to LoBind™ tubes (Eppendorf). Cell count was determined using a Fuchs-Rosenthal counting chamber (Hartenstein). Cells were centrifuged for 5 min at 4°C at 10.000 rpm and the supernatant was aspirated. Cells were resuspended in 1,000 µL 1 x PBS and centrifuged for 5 min at 4°C at 10.000 rpm. After centrifugation, the supernatant was aspirated, and the cell pellet was resuspended in 250 µL ammonium acetate buffer (10 mM) and 250 µL of 30% methanol with 1% acetic acid containing polymyxin B respectively colistin as an internal standard. Cells were sonicated for 10 min and centrifuged for 5 min at 4°C at 14.000 rpm. The supernatant was transferred quantitatively into new LoBind™ tubes (Eppendorf) and dried in a centrifugal vacuum concentrator for 2–3 h. To measure compound plastic binding, the empty 12 well plates were washed with 1.5 ml acetonitrile on an orbital shaker for 2 h and supernatant was collected. For sample purification via solid phase extraction, SPE cartridges Strata-X 33 µm polymeric reversed phase, 10 mg/1 ml (Phenomenex) were used. In the conditioning step the cartridges were rinsed with 200 µL methanol (100%) and subsequently with 200 µL ddH2O to activate the sorbent bed. The dried samples were dissolved in 200 µL 1% acetic acid and transferred onto the SPE cartridge. The SPE cartridge were rinsed once with 200 µL 1% acetic acid. Impurities were removed by rinsing the cartridge once with 200 µL 10% methanol. A fresh LoBind™ tube (Eppendorf) was placed under the SPE cartridge to eluate the samples by rinsing twice with 200 µL 90% methanol containing 1% acetic acid. The samples were dried in a centrifugal vacuum concentrator for 2–3 h. All samples were stored at −20°C until LC-MS/MS analysis.
A triple quadrupole mass spectrometer equipped with a Turbo-Ion® Spray source (QTrap API 2000; AB Sciex Instruments) was used for analyses. The mass spectrometer was coupled to an Agilent 1100 HPLC system consisting of a binary pump system, a vacuum degasser and an autosampler (Agilent 1,100). […]

The conditions of series [1]: cited from earlier work. The source says: Plasma/Serum Treatment KE BMC10 [µM] Concentration MOE [µM] RPTEC/TERT1 / Human KE1 4.2 1.0 - 7.4 Polymyxin B KE2 6.8 1.7 - 11.9 0.57 – 4.1 (1,2 ...

Where two headings read alike, the source gives them in different places.

Regarding Colistin, in the series on RPTEC/TERT1 cells (RPTEC/TERT1, 34 µM), the “Intracellular concentration compared to polymyxin B” value is reported as “lower intracellular concentrations” and the “Time course of intracellular concentration” value is recorded as “continuous rise in the intracellular concentration”. The “Intracellular concentration after recovery compared to the 24 h time-point” value with RPTEC/TERT1 cells is given as “declined during the 24 h off-dose recovery period”. In addition, in series [1] (human, cmax or css at therapeutic or known nephrotoxic doses, ref 3,4 (Tran et al., 2016; Sorli et al., 2017)), the “Plasma/Serum Concentration” value is 0.42 to 8.1 µM.

Turning to Polymyxin B, the “Intracellular concentration after recovery compared to the 24 h time-point” value in the series with RPTEC/TERT1 cells is listed as “declined during the 24 h off-dose recovery period”. Further, the “Time course of intracellular concentration” value with RPTEC/TERT1 cells (RPTEC/TERT1, 34 µM) was “continuous rise in the intracellular concentration”. In addition, the “Plasma/Serum Concentration” value was 0.57 to 4.1 µM in series [1] (human, cmax or css at therapeutic or known nephrotoxic doses, ref 1,2 (Sandri et al., 2013; Manchandani et al., 2016)) and 7.0 to 7.1 µM in series [1] (rat, cmax or css at human equivalent or nephrotoxic doses, ref 5 (Nilsson et al., 2015)).
